Consider six molecules from ChEMBL document CHEMBL5727270, “Macrocyclic immunomodulators” (2019).

pIC50: −log10 of the molar value.

For the assay, the target named is Programmed cell death 1 ligand 1 (Homo sapiens, UniProt Q9NZQ7). In words: Enzyme-Linked Immunosorbent Assay - ELISA: 96 Well plates were coated with 1 μg/mL of human PD-L1 (obtained from R&D) in PBS overnight at 4° C. The wells were then blocked with 2% BSA in PBS (W/V) with 0.05% TWEEN-20 for 1 hour at 37° C. The plates were washed 3 times with PBS/0.05% TWEEN-20 and the compounds were serial diluted (1:5) in dilution medium and added to the ELISA plates. Human PD-1 and biotin 0.3 μg/mL (ACRO Biosystems) were added and incubated for 1 hour at 37° C. then washed 3 times with PBS/0.05% TWEEN-20. A second block was performed with 2% BSA in PBS (W/V)/0.05% TWEEN-20 for 10 min at 37° C. and was washed 3 times with PBS/0.05% TWEEN-20. Streptavidin-HRP was added for 1 hour at 37° C. then washed 3 times with PBS/0.05% TWEEN-20. TMB substrate was added and reacted for 20 min at 37° C. A stop solution (2 N aqueous H2SO4) was added. The absorbance was read at 450 nm using a micro-plate spectrophotometer. On the technique in general: An ELISA detects its analyte on a solid surface through an enzyme-linked reagent.
Programmed cell death 1 ligand 1, sequence (Q9NZQ7 whole entry): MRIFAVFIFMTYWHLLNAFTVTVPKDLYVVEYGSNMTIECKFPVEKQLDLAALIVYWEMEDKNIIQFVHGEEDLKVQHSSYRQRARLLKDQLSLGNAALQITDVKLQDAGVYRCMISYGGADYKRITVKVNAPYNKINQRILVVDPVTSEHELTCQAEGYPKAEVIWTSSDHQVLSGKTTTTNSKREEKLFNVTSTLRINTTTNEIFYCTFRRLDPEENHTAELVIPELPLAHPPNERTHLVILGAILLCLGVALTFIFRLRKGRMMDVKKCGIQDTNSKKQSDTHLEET

`Cc1c(COc2cc3c(cc2Cl)CN[C@H](C(=O)O)CCCCNC(=O)c2cc(C#N)cc(c2)CO3)cccc1-c1cccc(OCCCN2CCC(O)CC2)c1C`: the pIC50 (usually the negative decadic logarithm of the IC50, by convention in mol/L) is over 7.00.

As to `Cc1c(COc2cc3c(cc2Cl)CN[C@H](C(=O)O)CCCCNC(=O)c2cncc(c2)CO3)cccc1-c1cccc(OCCCN2CC[C@@H](O)C2)c1C`, the pIC50 is over 7.00.

Consider `Cc1c(COc2cc3c(cc2Cl)CN[C@@H](C(=O)O)CCCCNC(=O)c2cncc(c2)CO3)cccc1-c1ccccc1`, for which the pIC50 was over 7.00.

Regarding `Cc1c(COc2cc3c(cc2Cl)CN[C@H](C(=O)O)CCCCCCNC(=O)c2cncc(c2)CO3)cccc1-c1cccc(OCCCN2CCC(O)CC2)c1C`, the pIC50 is over 7.00.

As to `Cc1c(COc2cc3c(cc2Cl)CN[C@H](CO)CCCCNC(=O)c2cncc(c2)CO3)cccc1-c1cccc(OCCCN2CCC(O)CC2)c1C`, the negative-log IC50 (pIC50) is over 7.00.

`Cc1c(COc2cc3c(cc2Cl)CN[C@H](C(=O)O)CCCCNC(=O)c2cc(C#N)cc(c2)CO3)cccc1-c1cccc(OCCCN2CC[C@@H](O)C2)c1C` showed a negative logarithm of the IC50 (pIC50) of over 7.00.
